Format in all cases: cell-based
The test system of test [1] is Human lung adenocarcinoma VMRC-LCD cells. In words: In vitro antitumor test (trypan blue exclusion viable cell count), VMRC-LCD. The conditions noted are these: 72 h, three days exposure, read-out: LD50 (IC50), 50% growth-inhibitory dose. On the procedure:
(§1) An appropriate amount of NFD was dissolved in DMSO to give a 1.0 mg/ml stock solution, which was diluted as necessary before use.
(§2) The following cells in the late logarithmic phase were harvested after treatment with trypsin (containing 0.25% trypsin and 0.02% EDTA; 37° C., 3 min) and used in the test: human lung adenocarcinoma cell lines A-549, VMRC-LCD and SK-LU-1, human lung squamous cell carcinoma Calu-1 cells, human colon adenocarcinoma WiDr cells, human prostate cancer LNCaP cells, human vaginal squamous cell carcinoma A-431 cells, human cervical carcinoma HeLa cells, human cholangiocarcinoma HuCC-T1 cells, mouse skin cancer melanoma B16 (M4) cells, human pancreatic carcinoma ASPC-1 cells, human neuroblastoma IMR-132 cells, human lung small cell carcinoma SCCH-194 cells, human uninary bladder carcinoma T24 cells, human renal cell carcinoma […] cells, human gastric cancer NUGC-2 cells, human thyroid carcinoma 8305C cells, human hepatoma HUH-7 cells, human ovarian carcinoma TYK-nu cells and human chorio carcinoma BeWo cells. […] These cells were plated onto a 96-well microplate at a density of 5-10×10^3 cells/cm^2 using DMEM or RPMI-1640 medium containing 10% fetal bovine serum and cultured for 24 hours in a conventional manner, after which a pre-determined amount of NFD dissolved in DMSO was added to each well. […]

Test [2] relates to Human lung small cell carcinoma SCCH-194 cells. In words: In vitro antitumor test (trypan blue exclusion viable cell count), SCCH-194. As to the method: as §1, §2
For test [3], the system named is Human uninary bladder carcinoma T24 cells. In words: In vitro antitumor test (trypan blue exclusion viable cell count), T24. As to the method:
as §1, §2

The subject of test [4] is Human breast cancer MRK-nu-1 cells. In words: In vitro antitumor test (trypan blue exclusion viable cell count), MRK-nu-1. As to the method:
as §1, §2

The test system of test [5] is Human chorio carcinoma BeWo cells. In words: In vitro antitumor test (trypan blue exclusion viable cell count), BeWo. As to the method:
as §1, §2

The test system of test [6] is human lung cancer cells. In words: In vitro antitumor test, human lung cancer cells (FIGS. 1-4). On the procedure:
as §1, §2

The mark [7] stands for this setting: 72 h, three days exposure, read-out: LD50 (IC50), 50% growth-inhibitory dose.

Values after ≈ are worked out from the molar mass of the structure shown.

As for `CC(O)c1cc2c(o1)C(=O)c1cccc(O)c1C2=O` (centres unmarked) [NFD, 2-(1-hydroxyethyl)-5-hydroxynaphtho[2,3-b]furan-4,9-dione], the concentration for half-maximal inhibition (IC50) (in general, the concentration needed to halve the response being measured) in test [1] is 0.013 µg/mL (≈ 0.0503 µM); in test [2] (72 h, SCCH-194, three days exposure, read-out: LD50 (IC50), 50% growth-inhibitory dose), 0.01 µg/mL (≈ 0.0387 µM); in test [3] (T-24, 72 h, T24, three days exposure, read-out: LD50 (IC50), 50% growth-inhibitory dose), 0.021 µg/mL (≈ 0.0813 µM); in test [4] (setting [7]), 0.012 µg/mL (≈ 0.0465 µM); in test [5] (setting [7]) it was 0.018 µg/mL (≈ 0.0697 µM). The IC (almost complete) was 0.03 µg/mL in test [2] (FIG. 15, read-out: concentration inhibiting growth almost completely); 0.023 µg/mL in test [3] (T-24, FIG. 16, read-out: concentration inhibiting growth almost completely); 0.033 µg/mL in test [4] (FIG. 20, read-out: concentration inhibiting growth almost completely); 0.0343 µg/mL in test [5] (FIG. 23, read-out: concentration inhibiting growth almost completely); 0.0112 to 0.0168 µg/mL in test [6] (Homo sapiens, read-out: concentration inhibiting growth almost completely). The “concentration causing necrosis in almost all tumor cells” value in test [6] lay in the range of 33.5 to 55.4 ng/mL.

These data come from patent US5663197A, “2-(1-hydroxyethyl)-5-hydroxynaphtho[2,3-b]furan-4,9-dione and antitumor agents comprising this compound” (priority 1992, dated 1997).
